Assay [1] relates to HCV replication, genotype 1b (Huh-7 HCV replicon cell, sub-line 5-15). As to the kind of experiment: Replicon ELISA cell based assay, genotype 1b. To be noted: Hepatitis C virus, Huh-7 HCV replicon cells, genotype 1b (sub-line 5-15), 72 hours, mean, assayed at least twice. As to the method: (§1) Replicon ELISA Cell Based Assay
(§2) 100 μL of medium containing 10% FCS were added to each well of clear, flat-bottomed 96 well microplates, excepting wells in the top row. Test compound was diluted in assay medium to twice the final required starting concentration from a 40 mM stock solution in DMSO. 200 μL of the starting dilution were introduced into two wells each in the top row and doubling dilutions made down the plate by the sequential transfer of 100 μL aliquots with thorough mixing in the wells; the final 100 μL were discarded. The two bottom rows were not used for compound dilutions. Huh-7 HCV replicon cell monolayers nearing confluency were stripped from growth flasks with versene-trypsin solution and the cells were resuspended in assay medium at either 2×10^5 cells/mL (sub-line 5-15; genotype 1b; Lohmann, V., Korner, F., Koch, J-O., Herian, U., Thielmann, L. and Bartenschlager, R., Science, 1999, 285, 110-113) or at 3×10^5 cells/mL (genotype 1a; Gu, B., Gates, A. T., Isken, O., Behrens, S. E. and Sarisky, R. T., J. Virol., 2003, 77, 5352-5359). 100 μL of cell suspension were added to all wells and the plates incubated at 37° C. for 72 hours in a 5% CO2 atmosphere.
(§3) Following incubation, the assay medium was aspirated from the plates. The cell sheets were washed by gentle immersion in phosphate buffered saline (PBS), which was then aspirated off, and fixed with acetone:methanol (1:1) for 5 minutes. Following a further wash with PBS, 100 μL of ELISA diluent (PBS+0.05% v/v Tween 20+2% w/v skimmed milk powder) were added to all wells and the plates incubated at 37° C. for 30 minutes on an orbital platform. The diluent was removed and each well then received 50 μL of a 1/200 dilution of anti-HCV specific, murine, monoclonal antibody (either Virostat #1872 or #1877), except for wells in one of the compound-free control rows which received diluent alone to act as negative controls. The plates were incubated at 37° C. for 2 hours and washed 3 times with PBS/0.05% Tween 20, then 50 μL of horseradish peroxidase conjugated, anti-mouse, rabbit polyclonal serum (Dako #P0260), diluted 1/1000, were added to all wells. The plates were incubated for a further hour, the antibody removed and the cell sheets washed 5 times with PBS/Tween and blotted dry. The assay was developed by the addition of 50 μL of ortho-phenylenediamine/peroxidase substrate in urea/citrate buffer (SigmaFast, Sigma #P-9187) to each well, and colour allowed to develop for up to 15 minutes. The reaction was stopped by the addition of 25 μL per well of 2 M sulphuric acid and the plates were read at 490 nm on a Fluostar Optima spectrophotometer.
(§4) The substrate solution was removed and the plates were washed in tap water, blotted dry and the cells stained with 5% carbol fuchsin in water for 30 minutes. The stain was discarded and the cell sheets washed, dried and examined microscopically to assess cytotoxicity.
(§5) The absorbance values from all compound-free wells that had received both primary and secondary antibodies were averaged to obtain a positive control value. The mean absorbance value from the compound-free wells that had not received the primary antibody was used to provide the negative (background) control value. The readings from the duplicate wells at each compound concentration were averaged and, after the subtraction of the mean background from all values, were expressed as a percentage of the positive control signal. The quantifiable and specific reduction of expressed protein detected by the ELISA in the presence of a drug can be used as a measure of replicon inhibition. GraFit software (Erithacus Software Ltd.) was used to plot the curve of percentage inhibition against compound concentration and derive the 50% inhibitory concentration (IC50) for the compound.
A general note: Replicon systems follow genome replication, usually without infectious particles.

The subject of assay [2] is HCV replication, genotype 1a (Huh-7 HCV replicon cell). As to the kind of experiment: Replicon ELISA cell based assay, genotype 1a. To be noted: Hepatitis C virus, Huh-7 HCV replicon cells, 72 hours, mean, assayed at least twice. As to the method: as §1, §2, §3, §4, §5

pIC50: −log10 of the molar value.

The pIC50 is the negative decadic logarithm of the IC50, by convention in mol/L. Higher therefore signals a small IC50. For the compound `CC(C)N(c1cc(-c2ccc(-c3cc4cc(N)ccc4o3)cc2)sc1C(=O)O)C(=O)[C@H]1CC[C@H](C)CC1` [Example 29, 5-[4-(5-Amino-1-benzofuran-2-yl)phenyl]-3-[[(trans-4-methylcyclohexyl)carbonyl](1-methylethyl)amino]-2-thiophenecarboxylic acid], the pIC50 in assay [1] and in assay [2] was 6.30 to 7.00 each time.
Turning to `CC(C)N(c1cc(-c2ccc(-c3cc4cccc(O)c4o3)cc2)sc1C(=O)O)C(=O)[C@H]1CC[C@H](C)CC1` [Example 19, 5-[4-(7-Hydroxy-1-benzofuran-2-yl)phenyl]-3-[[(trans-4-methylcyclohexyl)carbonyl](1-methylethyl)amino]-2-thiophenecarboxylic acid], the negative logarithm of the IC50 (pIC50) in assay [1] and in assay [2] was over 8.30 throughout.
As to `CC(C)N(c1cc(-c2ccc(-c3cn4ccsc4n3)cc2)sc1C(=O)O)C(=O)[C@H]1CC[C@H](C)CC1` [Example 4, 5-(4-Imidazo[2,1-b][1,3]thiazol-6-ylphenyl)-3-[[(trans-4-methylcyclohexyl)carbonyl](1-methylethyl)amino]-2-thiophenecarboxylic acid], the values for the pIC50 in assay [1] and in assay [2] were 7.30 to 8.00 and 7.00 to 7.30, respectively.
Turning to `CC(C)N(c1cc(-c2ccc(-c3nc4ccc(N)cc4o3)cc2)sc1C(=O)O)C(=O)[C@H]1CC[C@H](C)CC1` [Example 23, 5-[4-(6-Amino-1,3-benzoxazol-2-yl)phenyl]-3-[[(trans-4-methylcyclohexyl)carbonyl](1-methylethyl)amino]-2-thiophenecarboxylic acid], the pIC50 in assay [1] was 7.30 to 8.00; in assay [2], 7.00 to 7.30.
Regarding `CC(C)N(c1cc(-c2ccc(-c3nc4cccnc4o3)cc2)sc1C(=O)O)C(=O)[C@H]1CC[C@H](C)CC1` [Example 11, 3-[[(4-Methylcyclohexyl)carbonyl](1-methylethyl)amino]-5-(4-[1,3]oxazolo[5,4-b]pyridin-2-ylphenyl)-2-thiophenecarboxylic acid], the pIC50 in assay [1] and in assay [2] was 6.30 to 7.00 throughout.
For `CC(C)N(c1cc(-c2ccc(-c3cc4cccnn4n3)cc2)sc1C(=O)O)C(=O)[C@H]1CC[C@H](C)CC1` [Example 24, 3-[[(trans-4-Methylcyclohexyl)carbonyl](1-methylethyl)amino]-5-(4-pyrazolo[1,5-b]pyridazin-2-ylphenyl)-2-thiophenecarboxylic acid], the pIC50 in assay [1] is 7.30 to 8.00; in assay [2] it was 6.30 to 7.00.
Take `Cc1ccn2nc(-c3ccc(-c4cc(N(C(=O)[C@H]5CC[C@H](C(F)(F)F)CC5)C(C)C)c(C(=O)O)s4)cc3)cc2n1` [Example 26, 3-((1-Methylethyl){[trans-4-(trifluoromethyl)cyclohexyl]carbonyl}amino)-5-[4-(5-methylpyrazolo[1,5-a]pyrimidin-2-yl)phenyl]-2-thiophenecarboxylic acid]: the figures for the negative-log IC50 (pIC50) in assay [1] and in assay [2] were 6.00 to 6.30 and 6.30 to 7.00, respectively.
As for `CC(C)N(c1cc(-c2ccc(-c3ccc4[nH]ccc4c3)cc2)sc1C(=O)O)C(=O)[C@H]1CC[C@H](C)CC1` [Example 41, 5-[4-(1H-Indol-5-yl)phenyl]-3-[[(trans-4-methylcyclohexyl)carbonyl](1-methylethyl)amino]-2-thiophenecarboxylic acid], the negative-log IC50 (pIC50) is 7.00 to 7.30 in assay [1] and 6.30 to 7.00 in assay [2].
The like results for `Cc1ccn2nc(-c3ccc(-c4cc(N(C(=O)[C@H]5CC[C@H](C)CC5)C(C)C)c(C(=O)O)s4)cc3)cc2n1` [Example 6, 3-[[(trans-4-Methylcyclohexyl)carbonyl](1-methylethyl)amino]-5[4-(5-methylpyrazolo[1,5-a]pyrimidin-2-yl)phenyl]-2-thiophenecarboxylic acid] were, in that order, 7.30 to 8.00 and 7.00 to 7.30.
As to `CC(C)N(c1cc(-c2ccc(-c3ccc4nc[nH]c4c3)cc2)sc1C(=O)O)C(=O)[C@H]1CC[C@H](C)CC1` [Example 28, 5-[4-(1H-Benzimidazol-5-yl)phenyl]-3-[[(trans-4-methylcyclohexyl)carbonyl](1-methylethyl)amino]-2-thiophenecarboxylic acid], the negative-log IC50 (pIC50) in assay [1] and in assay [2] was 6.30 to 7.00 throughout.
Turning to `CC(C)N(c1cc(-c2ccc(-c3cc4ncccc4o3)s2)sc1C(=O)O)C(=O)[C@H]1CC[C@H](C)CC1` [Example 43, 5′-Furo[3,2-b]pyridin-2-yl-4-[[(trans-4-methylcyclohexyl)carbonyl](1-methylethyl)amino]-2,2′-bithiophene-5-carboxylic acid], the pIC50 in assay [1] was 7.00 to 7.30; in assay [2], 6.00 to 6.30.
As for `CC(C)N(c1cc(-c2ccc(C#N)cc2)sc1C(=O)O)C(=O)[C@H]1CC[C@H](C)CC1` [Compound D, 5-(4-Cyanophenyl)-3-[[(trans-4-methylcyclohexyl)carbonyl](1-methylethyl)amino]-2-thiophenecarboxylic acid, reference compound], the pIC50 in assay [1] and in assay [2] was 5.30 to 6.00 throughout.
As for `CC(C)N(c1cc(-c2ccc(-c3cc4ncccn4n3)s2)sc1C(=O)O)C(=O)[C@H]1CC[C@H](C)CC1` [Example 36, 4-[[(trans-4-Methylcyclohexyl)carbonyl](1-methylethyl)amino]-5′-pyrazolo[1,5-a]pyrimidin-2-yl-2,2′-bithionhene-5-carboxylic acid], the negative logarithm of the IC50 (pIC50) in assay [1] and in assay [2] was 7.30 to 8.00 throughout.
With `CC(=O)c1ccc(-c2cc(N(C(=O)[C@H]3CC[C@H](C)CC3)C(C)C)c(C(=O)O)s2)cc1` [Compound E, 5-(4-Acetylphenyl)-3-[[(trans-4-methylcyclohexyl)carbonyl](1-methylethyl)amino]-2-thiophenecarboxylic acid, reference compound], the pIC50 in assay [1] and in assay [2] was 5.30 to 6.00 each time.
Take `CC(C)N(c1cc(-c2ccc(-c3ccn4nccc4n3)cc2)sc1C(=O)O)C(=O)[C@H]1CC[C@H](C)CC1` [Example 17, 3-[[(trans-4-Methylcyclohexyl)carbonyl](1-methylethyl)amino]-5-(4-pyrazolo[1,5-a]pyrimidin-5-ylphenyl)-2-thiophenecarboxylic acid]: the negative logarithm of the IC50 (pIC50) in assay [1] and in assay [2] was 6.30 to 7.00 in each case.
`CC(C)N(c1cc(-c2ccc(-c3cc4ncccn4n3)nc2)sc1C(=O)O)C(=O)[C@H]1CC[C@H](C)CC1` [Example 34, 3-[[(trans-4-Methylcyclohexyl)carbonyl](1-methylethyl)amino]-5-(6-pyrazolo[1,5-a]pyrimidin-2-yl-3-pyridinyl)-2-thiophenecarboxylic acid]: the figures for the pIC50 in assay [1] and in assay [2] were 7.00 to 7.30 and 7.30 to 8.00, respectively.
Regarding `CC(C)N(c1cc(-c2ccc(Cl)cc2)sc1C(=O)O)C(=O)[C@H]1CC[C@H](C)CC1` [Compound B, 5-(4-Chlorophenyl)-3-[[(trans-4-methylcyclohexyl)carbonyl](1-methylethyl)amino]-2-thiophenecarboxylic acid, reference compound], the pIC50 in assay [1] and in assay [2] was 5.30 to 6.00 throughout.
With `CC(C)N(c1cc(-c2ccc(-c3cc4ncccc4o3)cc2)sc1C(=O)O)C(=O)[C@H]1CC[C@H](C)CC1` [Example 1, 5-(4-Furo[3,2-b]pyridin-2-ylphenyl)-3-[[(trans-4-methylcyclohexyl)carbonyl](1-methylethyl)amino]-2-thiophenecarboxylic acid], the pIC50 in assay [1] and in assay [2] was 7.30 to 8.00 each time.
On to `CC(C)N(c1cc(-c2ccc(-c3cc4ncccc4o3)cc2)sc1C(=O)O)C(=O)[C@H]1CC[C@H](C(F)(F)F)CC1` [Example 22, 5-(4-Furo[3,2-b]pyridin-2-ylphenyl)-3-((1-methylethyl){[trans-4-(trifluoromethyl)cyclohexyl]carbonyl}amino)-2-thiophenecarboxylic acid], for which the negative logarithm of the IC50 (pIC50) in assay [1] and in assay [2] was 7.00 to 7.30 in each case.

For the origin of these results see patent US20090136448A1, “Antiviral 2-Carboxy-Thiophene Compounds” (priority 2005, published 2009).
